Source: PubChem BioAssay AID2060626 (Molecular Pharmacology Branch, DTP, NCI, 2025)

The molecules below were run on 168753-222-R-J1-PDC complex spheroid viability (assay: Anticancer human tumor 168753-222-R-J1-PDC patient-derived bladder carcinoma cell line growth inhibition [CLK]). Settings: second compound 3.16 µM; first compound 0.1 µM; stronger effect = lower value.
From the text: A high-throughput screen of multi-cell type tumor spheroids was designed to identify active combinations of […] and targeted small molecules. Complex spheroids include a stromal component modeled by human endothelial cells (HUVEC) and fibroblasts modeled by human mesenchymal stem cells (MSCs). The concentration ranges selected for each drug and investigational agent were based upon clinically achievable concentrations if the clinical Cmax of the agent was known.
Compounds. The drugs and investigational agents: cirtuvivint (SM08502; NSC835563), CC-671 (NSC850746), vemurafenib (NSC761431), tapotoclax (NSC804041), sotorasib (NSC818433), adagrasib (NSC831453), MRTX-1133 (NSC836407), BAY2416964 (NSC825713), copanlisib (NSC816437), inavolisib (NSC800729), abemaciclib (NSC768073), osimertinib (NSC779217), entinostat (NSC756642), eltanexor (KPT-8602, NSC794443), venetoclax (NSC766270), ceralasertib (NSC777638), bortezomib (NSC756655), olaparib (NSC753686), talazoparib (NSC767125), alisertib (NSC759677), peposertib (NSC802822), gemcitabine (NSC613327), 5-fluorouracil (NSC19893), SN-38 (NSC673596), oxaliplatin (NSC266046), paclitaxel (NSC125973), and doxorubicin (NSC123127), were obtained from the National Cancer Institute (NCI) Developmental Therapeutics Program Chemical Repository. The FDA-approved anticancer drug set is available from the Developmental Therapeutics Program at https://dtp.cancer.gov/organization/dscb/obtaining/available plates.htm. […] The stock solutions were prepared in dimethyl sulfoxide (DMSO, Sigma-Aldrich, St. Louis, MO, cat. D2650), except for the platinum complexes which were prepared in saline (Quality Biological, Gaithersburg, MD, cat. 114-055-101), at 800-fold the tested concentration and stored at -70 degrees C prior to their use. All drugs and investigational agents were tested over a range starting from a high concentration at or near the clinical Cmax and decreasing in half-log increments. If the clinical Cmax for an agent had not been determined, the highest concentration tested was 10 microM.
Cell Culture. All cells were maintained in an incubator at 37 degrees C and 5% CO2 with 95% humidity. The PDC lines were cultured according to standard operating procedures established by the NCI PDMR. Briefly, all PDCs were thawed and cultured in Matrigel-coated flasks prepared with a working solution of 1X Ham's F-12 nutrient mix, without supplementation (Invitrogen, Waltham, MA, cat. 11765054), 100 U/mL penicillin-streptomycin (Invitrogen, cat. 15140122), and 2.5% Matrigel (Corning Inc., Corning, NY, cat. 354248) for the first three passages. The 947758-054-R-J2-PDC line was cultured in 6B/Colon 1A media, which includes advanced DMEM/F-12 (Thermo Fisher Scientific, cat. 12634028), 10 mM HEPES (Thermo Fisher Scientific, cat. 15630080), 1X GlutaMAX supplement (Thermo Fisher Scientific, cat. 35050061), 0.1 mg/mL primocin (InvivoGen, cat. ant-pm-2), 10% defined fetal bovine serum, heat inactivated (HyClone Laboratories Inc., cat. SH30070.03HI), 1.25 mM N-Acetyl-L-cysteine (Sigma-Aldrich, cat. A9165), 10 mM nicotinamide (Sigma-Aldrich, cat. N0636), 1X B-27 supplement (Thermo Fisher Scientific, cat. 17504044), 1X N-2 supplement (Thermo Fisher Scientific, cat. 17502048), and 10 microM Y-27632 dihydrochloride (Tocris Bioscience, cat. 1254). The 876862-298-R-J1-PDC was cultured in 6E media, which includes all 6B/Colon 1A media components plus 50% L-WRN conditioned media (ATCC, cat. CRL-3276), 50 ng/mL recombinant human EGF recombinant protein (hEGF; Thermo Fisher Scientific, cat. PHG0311), 10 ng/mL recombinant human fibroblast growth factor 10 (hGFG-10; PeproTech, cat. 100-26), 1 ng/mL recombinant human fibroblast growth factor 2 (hFGF-2; PeproTech, cat. 100-18B), and 1 µM prostaglandin E2 (PGE2; Tocris, cat. 2296). The 227483-062-R1-J1-PDC line was cultured in Panc media, containing all 6E components except hFGF-2, with the addition of 500 nM SB-431542 (Selleckchem, cat. S1067) and 10 nM gastrin (Tocris, cat. 3006). […]
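Note: luminescence signal used as surrogate for viable cell amount; viability measured after seven days of drug exposure; 100% = DMSO vehicle control wells.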

Compared with `C=C(F)C(=O)N1CCN(c2nc(OCC3CCCN3C)nc3c2CCN(c2cccc4cccc(Cl)c24)C3)CC1CC#N` (configuration not stated) + CN1CCN(c2cc(C(=O)Nc3cc4cc(-c5cnn(C)c5)ccc4cn3)ccn2)CC1, `CC(CO)NC(=O)c1cc(-c2ccc(Cl)cc2)nn(-c2cnn(C)c2)c1=O` (configuration not stated) + CN1CCN(c2cc(C(=O)Nc3cc4cc(-c5cnn(C)c5)ccc4cn3)ccn2)CC1 is lower in viability, T/C: 0.24% for the first, 0.16% for the second.

Same assay, conditions: second compound 3.16 µM; first compound 0.316 µM; stronger effect = lower value

Compared with `C#Cc1c(F)ccc2cc(O)cc(-c3ncc4c(N5CC6CCC(C5)N6)nc(OCC56CCCN5CC(F)C6)nc4c3F)c12` (configuration not stated) + CN1CCN(c2cc(C(=O)Nc3cc4cc(-c5cnn(C)c5)ccc4cn3)ccn2)CC1, `C=C(F)C(=O)N1CCN(c2nc(OCC3CCCN3C)nc3c2CCN(c2cccc4cccc(Cl)c24)C3)CC1CC#N` (configuration not stated) + CN1CCN(c2cc(C(=O)Nc3cc4cc(-c5cnn(C)c5)ccc4cn3)ccn2)CC1 is lower in viability, T/C: 1.48% for the first, 0.44% for the second.

In the case of `CC(CO)NC(=O)c1cc(-c2ccc(Cl)cc2)nn(-c2cnn(C)c2)c1=O` (configuration not stated) + CN1CCN(c2cc(C(=O)Nc3cc4cc(-c5cnn(C)c5)ccc4cn3)ccn2)CC1, the viability, T/C is reported as 2.4%.

Same assay, conditions: second compound 3.16 µM; first compound 1 µM; stronger effect = lower value

First: C#Cc1c(F)ccc2cc(O)cc(-c3ncc4c(N5CC6CCC(C5)N6)nc(OCC56CCCN5CC(F)C6)nc4c3F)c12 (configuration not stated) + CN1CCN(c2cc(C(=O)Nc3cc4cc(-c5cnn(C)c5)ccc4cn3)ccn2)CC1
Second: C=C(F)C(=O)N1CCN(c2nc(OCC3CCCN3C)nc3c2CCN(c2cccc4cccc(Cl)c24)C3)CC1CC#N (configuration not stated) + CN1CCN(c2cc(C(=O)Nc3cc4cc(-c5cnn(C)c5)ccc4cn3)ccn2)CC1
The viability, T/C of the first is lower: 0.13% for the first, 0.14% for the second.

For `CC(CO)NC(=O)c1cc(-c2ccc(Cl)cc2)nn(-c2cnn(C)c2)c1=O` (configuration not stated) + CN1CCN(c2cc(C(=O)Nc3cc4cc(-c5cnn(C)c5)ccc4cn3)ccn2)CC1, the viability, T/C was 0.15%.

Same assay, conditions: second compound 3.16 µM; first compound 3.16 µM; stronger effect = lower value

First: C#Cc1c(F)ccc2cc(O)cc(-c3ncc4c(N5CC6CCC(C5)N6)nc(OCC56CCCN5CC(F)C6)nc4c3F)c12 (configuration not stated) + CN1CCN(c2cc(C(=O)Nc3cc4cc(-c5cnn(C)c5)ccc4cn3)ccn2)CC1
Second: C=C(F)C(=O)N1CCN(c2nc(OCC3CCCN3C)nc3c2CCN(c2cccc4cccc(Cl)c24)C3)CC1CC#N (configuration not stated) + CN1CCN(c2cc(C(=O)Nc3cc4cc(-c5cnn(C)c5)ccc4cn3)ccn2)CC1
The viability, T/C of the first is lower: 0.39% for the first, 0.87% for the second.

Work on `CC(CO)NC(=O)c1cc(-c2ccc(Cl)cc2)nn(-c2cnn(C)c2)c1=O` (configuration not stated) + CN1CCN(c2cc(C(=O)Nc3cc4cc(-c5cnn(C)c5)ccc4cn3)ccn2)CC1 yielded a viability, T/C of 2.55%.

Same assay, conditions: second compound 3.16 µM; first compound 10 µM; stronger effect = lower value

Going from `C#Cc1c(F)ccc2cc(O)cc(-c3ncc4c(N5CC6CCC(C5)N6)nc(OCC56CCCN5CC(F)C6)nc4c3F)c12` (configuration not stated) + CN1CCN(c2cc(C(=O)Nc3cc4cc(-c5cnn(C)c5)ccc4cn3)ccn2)CC1 to `C=C(F)C(=O)N1CCN(c2nc(OCC3CCCN3C)nc3c2CCN(c2cccc4cccc(Cl)c24)C3)CC1CC#N` (configuration not stated) + CN1CCN(c2cc(C(=O)Nc3cc4cc(-c5cnn(C)c5)ccc4cn3)ccn2)CC1, the viability, T/C rises from 0.22% to 0.23%.

`CC(CO)NC(=O)c1cc(-c2ccc(Cl)cc2)nn(-c2cnn(C)c2)c1=O` (configuration not stated) + CN1CCN(c2cc(C(=O)Nc3cc4cc(-c5cnn(C)c5)ccc4cn3)ccn2)CC1 showed a viability, T/C of 0.21%.

Same assay, conditions: second compound 10 µM; first compound 0.0316 µM; stronger effect = lower value

Compared with `C#Cc1c(F)ccc2cc(O)cc(-c3ncc4c(N5CC6CCC(C5)N6)nc(OCC56CCCN5CC(F)C6)nc4c3F)c12` (configuration not stated) + CN1CCN(c2cc(C(=O)Nc3cc4cc(-c5cnn(C)c5)ccc4cn3)ccn2)CC1, `C=C(F)C(=O)N1CCN(c2nc(OCC3CCCN3C)nc3c2CCN(c2cccc4cccc(Cl)c24)C3)CC1CC#N` (configuration not stated) + CN1CCN(c2cc(C(=O)Nc3cc4cc(-c5cnn(C)c5)ccc4cn3)ccn2)CC1 is higher in viability, T/C: 0.18% for the first, 0.27% for the second.

For `CC(CO)NC(=O)c1cc(-c2ccc(Cl)cc2)nn(-c2cnn(C)c2)c1=O` (configuration not stated) + CN1CCN(c2cc(C(=O)Nc3cc4cc(-c5cnn(C)c5)ccc4cn3)ccn2)CC1, the viability, T/C was 0.26%.

Same assay, conditions: second compound 10 µM; first compound 0.1 µM; stronger effect = lower value

First: C#Cc1c(F)ccc2cc(O)cc(-c3ncc4c(N5CC6CCC(C5)N6)nc(OCC56CCCN5CC(F)C6)nc4c3F)c12 (configuration not stated) + CN1CCN(c2cc(C(=O)Nc3cc4cc(-c5cnn(C)c5)ccc4cn3)ccn2)CC1
Second: C=C(F)C(=O)N1CCN(c2nc(OCC3CCCN3C)nc3c2CCN(c2cccc4cccc(Cl)c24)C3)CC1CC#N (configuration not stated) + CN1CCN(c2cc(C(=O)Nc3cc4cc(-c5cnn(C)c5)ccc4cn3)ccn2)CC1
The viability, T/C of the first is higher: 0.32% for the first, 0.19% for the second.

`CC(CO)NC(=O)c1cc(-c2ccc(Cl)cc2)nn(-c2cnn(C)c2)c1=O` (configuration not stated) + CN1CCN(c2cc(C(=O)Nc3cc4cc(-c5cnn(C)c5)ccc4cn3)ccn2)CC1 showed a viability, T/C of 0.45%.

Same assay, conditions: second compound 10 µM; first compound 0.316 µM; stronger effect = lower value

First: C#Cc1c(F)ccc2cc(O)cc(-c3ncc4c(N5CC6CCC(C5)N6)nc(OCC56CCCN5CC(F)C6)nc4c3F)c12 (configuration not stated) + CN1CCN(c2cc(C(=O)Nc3cc4cc(-c5cnn(C)c5)ccc4cn3)ccn2)CC1
Second: C=C(F)C(=O)N1CCN(c2nc(OCC3CCCN3C)nc3c2CCN(c2cccc4cccc(Cl)c24)C3)CC1CC#N (configuration not stated) + CN1CCN(c2cc(C(=O)Nc3cc4cc(-c5cnn(C)c5)ccc4cn3)ccn2)CC1
The viability, T/C of the first is higher: 0.39% for the first, 0.28% for the second.

For `CC(CO)NC(=O)c1cc(-c2ccc(Cl)cc2)nn(-c2cnn(C)c2)c1=O` (configuration not stated) + CN1CCN(c2cc(C(=O)Nc3cc4cc(-c5cnn(C)c5)ccc4cn3)ccn2)CC1, the viability, T/C was 0.61%.

Same assay, conditions: second compound 10 µM; first compound 1 µM; stronger effect = lower value

Compared with `C#Cc1c(F)ccc2cc(O)cc(-c3ncc4c(N5CC6CCC(C5)N6)nc(OCC56CCCN5CC(F)C6)nc4c3F)c12` (configuration not stated) + CN1CCN(c2cc(C(=O)Nc3cc4cc(-c5cnn(C)c5)ccc4cn3)ccn2)CC1, `C=C(F)C(=O)N1CCN(c2nc(OCC3CCCN3C)nc3c2CCN(c2cccc4cccc(Cl)c24)C3)CC1CC#N` (configuration not stated) + CN1CCN(c2cc(C(=O)Nc3cc4cc(-c5cnn(C)c5)ccc4cn3)ccn2)CC1 is higher in viability, T/C: 0.2% for the first, 0.24% for the second.

`CC(CO)NC(=O)c1cc(-c2ccc(Cl)cc2)nn(-c2cnn(C)c2)c1=O` (configuration not stated) + CN1CCN(c2cc(C(=O)Nc3cc4cc(-c5cnn(C)c5)ccc4cn3)ccn2)CC1 was tested, and the viability, T/C was 0.27%.

Same assay, conditions: second compound 10 µM; first compound 3.16 µM; stronger effect = lower value

First: C#Cc1c(F)ccc2cc(O)cc(-c3ncc4c(N5CC6CCC(C5)N6)nc(OCC56CCCN5CC(F)C6)nc4c3F)c12 (configuration not stated) + CN1CCN(c2cc(C(=O)Nc3cc4cc(-c5cnn(C)c5)ccc4cn3)ccn2)CC1
Second: C=C(F)C(=O)N1CCN(c2nc(OCC3CCCN3C)nc3c2CCN(c2cccc4cccc(Cl)c24)C3)CC1CC#N (configuration not stated) + CN1CCN(c2cc(C(=O)Nc3cc4cc(-c5cnn(C)c5)ccc4cn3)ccn2)CC1
The viability, T/C of the first is higher: 0.57% for the first, 0.36% for the second.

`CC(CO)NC(=O)c1cc(-c2ccc(Cl)cc2)nn(-c2cnn(C)c2)c1=O` (configuration not stated) + CN1CCN(c2cc(C(=O)Nc3cc4cc(-c5cnn(C)c5)ccc4cn3)ccn2)CC1 showed a viability, T/C of 1.02%.

Same assay, conditions: second compound 10 µM; first compound 10 µM; stronger effect = lower value

Going from `C#Cc1c(F)ccc2cc(O)cc(-c3ncc4c(N5CC6CCC(C5)N6)nc(OCC56CCCN5CC(F)C6)nc4c3F)c12` (configuration not stated) + CN1CCN(c2cc(C(=O)Nc3cc4cc(-c5cnn(C)c5)ccc4cn3)ccn2)CC1 to `C=C(F)C(=O)N1CCN(c2nc(OCC3CCCN3C)nc3c2CCN(c2cccc4cccc(Cl)c24)C3)CC1CC#N` (configuration not stated) + CN1CCN(c2cc(C(=O)Nc3cc4cc(-c5cnn(C)c5)ccc4cn3)ccn2)CC1, the viability, T/C falls from 3.73% to 2.34%.

`CC(CO)NC(=O)c1cc(-c2ccc(Cl)cc2)nn(-c2cnn(C)c2)c1=O` (configuration not stated) + CN1CCN(c2cc(C(=O)Nc3cc4cc(-c5cnn(C)c5)ccc4cn3)ccn2)CC1 showed a viability, T/C of 2.24%.
